Measured values reported in patent US8703796B2, “3H-imidazo [4, 5-B] pyridine-6-carboxamides as anti-inflammatory agents” (Boehringer Ingelheim International GmbH, priority 2008, dated 2014).
Counter-ions that a name gives are not always drawn.

Target: T1, recombinant human mPGES-1 (Homo sapiens, UniProt O14684)
T1 construct: made in house; host or cells: Rosetta E. coli (microsomal/membrane fraction)
T1 sequence (O14684 1-152): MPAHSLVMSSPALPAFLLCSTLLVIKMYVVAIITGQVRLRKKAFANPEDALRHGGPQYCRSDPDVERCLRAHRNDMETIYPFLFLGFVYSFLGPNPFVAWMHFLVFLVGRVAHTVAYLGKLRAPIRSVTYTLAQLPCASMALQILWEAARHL
Assay: mPGES-1 inhibition, HTRF detection of PGE2
Assay type: biochemical
Experimental: Microsomes from Rosetta E. coli bacteria expressing recombinant human mPGES-1 is dissolved in 0.1 M KPi pH 7.4 buffer containing 2.5 mM GSH. 50 μl of the enzyme is subsequently dispensed in a 384-well plate. 0.5 μl of the inhibitor dissolved in DMSO at is thereafter added to each well and incubated for 25 minutes at room temperature. Subsequently, 2 μl of PGH2 dissolved in an appropriate solvent is added to each well and after one minute the acidified stop solution containing FeCl2 is added. 4 μl of the total volume is transferred to a separate plate and diluted 750-fold in two separate steps before HTRF detection of PGE2.
The HTRf detection is performed by the use of a commercially available kit from CisBio essentially according to the manufacturer's protocol. Briefly, 10 μl of the diluted sample is transferred to a white 384-well plate. 5 μl of d2 and 5 μl Eu3+-Cryptate labeled anti-PGE2 is added to each well containing samples by the use of a Multidrop. The plate is covered with a plastic self-adhesive film, centrifuged at 1200 rpm for 1 minute and subsequently stored at +4° C. over night.
After over night incubation the fluorescence is measured by the use of an appropriate microplate reader. The fluorescence of europium cryptate, and d2 are measured using the following excitation and emission wavelength, europium cryptate: λmax^ex=307 nm, λmax^em=620 nm and d2: λmax^ex=620 nm, λmax^em=665 nm), respectively. The extent of the specific FRET is measured as a ratio of the emission intensity at 665 nm vs. that at 620 nm. A standard curve using synthetic PGE2 is used to quantify the amount of PGE2 in unknown samples.

| inhibition at 10 µM [%] | inhibition at 1 µM [%] | SMILES |
| --- | --- | --- |
| 100 |  | Cn1c(Nc2c(Cl)cc(F)cc2Cl)nc2cc(C(=O)Nc3cc(C(F)(F)F)ccn3)c(OCC(F)(F)F)nc21 [Example 815, 2-(2,6-Dichloro-4-fluoro-phenylamino)-5-(2,2,2-trifluoro-ethoxy)-N-(4-trifluoromethyl-pyridin-2-yl)-3-methyl-3H-imidazo[4,5-b]pyridine-6-carboxamide] |
| 74 |  | CC(C)n1c(Nc2ccccc2Cl)nc2cc(C(=O)NC3CCC(C)(C)CC3)cnc21 [Example 541, 2-(2-Chlorophenylamino)-N-(4,4-dimethylcyclohexyl)-3-isopropyl-3H-imidazo[4,5-b]pyridine-6-carboxamide hydrochloride] |
| 99 |  | O=C(Nc1cc(C(F)(F)F)ccn1)c1cc2nc(Nc3c(Cl)cncc3Cl)[nH]c2nc1OCC(F)(F)F [Example 857, 2-(3,5-Dichloro-pyridin-4-ylamino)-5-(2,2,2-trifluoro-ethoxy)-N-(4-trifluoromethyl-pyridin-2-yl)-3H-imidazo[4,5-b]pyridine-6-carboxamide] |
| 99 |  | Cn1c(Nc2c(Cl)cccc2Cl)nc2cc(C(=O)NC3CCCC(C)(C)C3)cnc21 (stereo not drawn) [Example 454, 2-(2,6-Dichlorophenylamino)-N-(3,3-dimethylcyclohexyl)-3-methyl-3H-imidazo[4,5-b]pyridine-6-carboxamide] |
| 91 |  | CN(C)CCOc1nc2[nH]c(Nc3c(Cl)cc(F)cc3Cl)nc2cc1C(=O)N[C@H]1CC[C@H](C(F)(F)F)CC1 [Example 864, 2-(2,6-Dichloro-4-fluoro-phenylamino)-5-(2-dimethylamino-ethoxy)-N-(trans-4-trifluoromethyl-cyclohexyl)-3H-imidazo[4,5-b]pyridine-6-carboxamide] |
| 99 |  | COc1nc2c(cc1C(=O)Nc1cc(C(F)(F)F)ccn1)nc(Nc1c(Cl)cccc1Cl)n2C [Example 386, 2-(2,6-Dichloro-phenylamino)-5-methoxy-3-methyl-N-(4-trifluoromethyl-pyridin-2-yl)-3H-imidazo[4,5-b]pyridine-6-carboxamide formate] |
| 95 |  | Cn1c(Nc2c(Cl)cncc2Cl)nc2cc(C(=O)Nc3cc(C(F)(F)F)ccn3)c(OCC(F)(F)F)nc21 [Example 852, 2-(3,5-Dichloro-pyridin-4-ylamino)-5-(2,2,2-trifluoro-ethoxy)-N-(4-trifluoromethyl-pyridin-2-yl)-3-methyl-3H-imidazo[4,5-b]pyridine-6-carboxamide] |

More lines, now with the values behind:

| SMILES | inhibition at 10 µM [%] | inhibition at 1 µM [%] |
| --- | --- | --- |
| Cn1c(Nc2c(Cl)cncc2Cl)nc2cc(C(=O)Nc3cc(C(F)(F)F)ccn3)c(OCCF)nc21 [Example 831, 2-(3,5-Dichloro-pyridin-4-ylamino)-5-(2-fluoro-ethoxy)-N-(4-trifluoromethyl-pyridin-2-yl)-3-methyl-3H-imidazo[4,5-b]pyridine-6-carboxamide] | 100 |  |
| Cn1c(Nc2c(Cl)cncc2Cl)nc2cc(C(=O)N[C@H]3CC[C@H](C(F)(F)F)CC3)c(OCC(F)F)nc21 [Example 838, 2-(3,5-Dichloro-pyridin-4-ylamino)-5-(2,2-difluoro-ethoxy)-N-(trans-4-trifluoromethyl-cyclohexyl)-3-methyl-3H-imidazo[4,5-b]pyridine-6-carboxamide] | 94 |  |
| CC1(C)CCC(NC(=O)c2cnc3[nH]c(Nc4c(F)cccc4Cl)nc3c2)CC1 [Example 466, 2-(2-Chloro-6-fluorophenylamino)-N-(4,4-dimethylcyclohexyl)-3H-imidazo[4,5-b]pyridine-6-carboxamide] | 100 |  |
| O=C(Nc1ccc(Br)cc1)c1cc2nc(Nc3ccccc3C(F)(F)F)[nH]c2nc1OCC(F)F [Example 775, N-(4-Bromo-phenyl)-2-(2-trifluoromethyl-phenylamino)-5-(2,2-difluoroethoxy)-3H-imidazo[4,5-b]pyridine-6-carboxamide] |  | 95 |
| O=C(N[C@H]1CC[C@H](C(F)(F)F)CC1)c1cc2nc(Nc3ccccc3C(F)(F)F)[nH]c2nc1OCC(F)F [Example 784, 2-(2-Trifluoromethyl-phenylamino)-5-(2,2-difluoro-ethoxy)-N-(trans-4-trifluoromethyl-cyclohexyl)-3H-imidazo[4,5-b]pyridine-6-carboxamide] | 97 |  |
| Cc1ccnc(Cl)c1Nc1nc2cc(C(=O)N[C@H]3CC[C@H](C(F)(F)F)CC3)c(OCC(F)F)nc2n1C [Example 788, 2-(2-Chloro-4-methyl-pyridin-3-ylamino)-5-(2,2-difluoro-ethoxy)-N-(trans-4-trifluoromethyl-cyclohexyl)-3-methyl-3H-imidazo[4,5-b]pyridine-6-carboxamide] | 98 |  |
| Cn1c(Nc2c(Cl)cncc2Cl)nc2cc(C(=O)Nc3ccc(Br)cc3)c(OC3CCOC3)nc21 (stereo not drawn) [Example 848, 2-(3,5-Dichloro-pyridin-4-ylamino)-5-(tetrahydrofuran-3-yl-oxy)-N-(4-bromo-phenyl)-3-methyl-3H-imidazo[4,5-b]pyridine-6-carboxamide] | 100 |  |
| O=C(N[C@H]1CC[C@H](C(F)(F)F)CC1)c1cc2nc(Nc3c(Cl)cncc3Cl)[nH]c2nc1OCC(F)(F)F [Example 859, 2-(3,5-Dichloro-pyridin-4-ylamino)-5-(2,2,2-trifluoro-ethoxy)-N-(trans-4-trifluoromethyl-cyclohexyl)-3H-imidazo[4,5-b]pyridine-6-carboxamide] | 89 |  |
| CCCC[C@H](C)NC(=O)c1cnc2c(c1)nc(Nc1c(Cl)cccc1Cl)n2C [Example 527, (S)-2-(2,6-Dichlorophenylamino)-N-(hex-2-yl)-3-methyl-3H-imidazo[4,5-b]pyridine-6-carboxamide] | 96 |  |
| Cc1ccnc(Cl)c1Nc1nc2cc(C(=O)N[C@H]3CC[C@H](C(F)(F)F)CC3)c(OCC(F)F)nc2[nH]1 [Example 797, 2-(2-Chloro-4-methyl-pyridin-3-ylamino)-5-(2,2-difluoro-ethoxy)-N-(trans-4-trifluoromethyl-cyclohexyl)-3H-imidazo[4,5-b]pyridine-6-carboxamide] | 100 |  |
| O=C(NCC(F)(F)C(F)(F)C(F)(F)C(F)(F)F)c1cc2nc(Nc3c(Cl)cncc3Cl)[nH]c2nc1OCC(F)F [Example 807, 2-(3,5-Dichloro-pyridin-4-ylamino)-5-(2,2-difluoro-ethoxy)-N-(2,2,3,3,4,4,5,5,5-nonafluoro-pentyl)-3H-imidazo[4,5-b]pyridine-6-carboxamide] | 90 |  |
| O=C(NCc1ncccc1C(F)(F)F)c1cc2nc(Nc3c(Cl)cc(F)cc3Cl)[nH]c2nc1OCC(F)F [Example 826, 2-(2,6-Dichloro-4-fluoro-phenylamino)-5-(2,2-difluoro-ethoxy)-N-((3-trifluoromethyl-pyridin-2-yl)-methyl)-3H-imidazo[4,5-b]pyridine-6-carboxamide] | 100 |  |
| O=C(NCc1ccccc1C(F)(F)F)c1cc2nc(Nc3c(Cl)cncc3Cl)[nH]c2nc1OCC(F)F [Example 805, 2-(3,5-Dichloro-pyridin-4-ylamino)-5-(2,2-difluoro-ethoxy)-N-((2-trifluoromethyl-phenyl)-methyl)-3H-imidazo[4,5-b]pyridine-6-carboxamide] | 98 |  |
| O=C(Nc1ccc(Br)cc1)c1cc2nc(Nc3c(Cl)cncc3Cl)[nH]c2nc1OCC(F)F [Example 804, 2-(3,5-Dichloro-pyridin-4-ylamino)-5-(2,2-difluoro-ethoxy)-N-(4-bromo-phenyl)-3H-imidazo[4,5-b]pyridine-6-carboxamide] | 98 |  |
